Values of other authors as cited in article PMC12399788, “A Comparison of the Molecular Pharmacological Properties of Current Short, Long, and Ultra‐Long‐Acting β2‐Agonists Used for Asthma and COPD” (Pharmacology Research & Perspectives, 2025).

Columns and labels:
guinea pig tracheal = system: guinea pig tracheal; parameters: method as in PMID 20402514; conditions: guinea pig tracheal studies
conscious guinea pigs = conditions: equipotent nebulized agents
human lung (mast cells) = conditions: histamine release from human lung (mast cells)

Row | Compound | duration of action (human trachea) | duration of action relative to salbutamol (human trachea) | duration (guinea pig tracheal) | bronchodilation duration (conscious guinea pigs) | time by which response was lost (human lung (mast cells)) | bronchodilation at 6 h (conscious guinea pigs; 6 h) | response remaining (% maximal) (human lung (mast cells); at 20 h)
1 | COc1ccc(CC(C)NCC(O)c2ccc(O)c(NC=O)c2)cc1 (centres unmarked) [Formoterol, formoterol] | 34 min | 4.5 times longer | 1.2 h | 3 h |  |  | 
2 | CCc1cc2c(cc1CC)CC(NC[C@H](O)c1ccc(O)c3[nH]c(=O)ccc13)C2 [Indacaterol, indacaterol] |  |  | over 12 h |  |  |  | 
3 | CC(C)(C)NCC(O)c1ccc(O)c(CO)c1 (centres unmarked) [Salbutamol, salbutamol] | 7.6 min |  | 0.9 h | less than 1.5 h | ≤ 4 h |  | 
4 | OCc1cc(C(O)CNCCCCCCOCCCCc2ccccc2)ccc1O (centres unmarked) [Salmeterol, salmeterol] |  |  |  |  |  | no reduction | 75%
